Results: patent publication US20080138853A1, “Method for evaluating the degree of maturity of corneocytes” (priority 2000, published 2008)

Tests used:
[1] = test system: horny layer of upper arm inside (cornified envelope); experiment: Involucrin-positive CE in experimental rough skin on the inside of the upper arm; assay type: in vivo, human; conditions: SDS-induced experimental rough skin, 3 to 4 specimens, non-treated group 0.09 ± 0.04
Excerpt: A cellophane adhesive tape was adhered on a face (cheek) and an upper arm of an examinee having skin troubles such as rough skin and immediately peeled off. […] The insoluble substances thus obtained was CE.
A result obtained by staining CE originating in the face of a person troubled with rough skin in the manner described above is shown in FIG. 1 (drawing substitute photograph), and shown in FIG. 2 (drawing substitute photograph) is a result obtained by staining CE originating in a horny layer obtained by experimental rough skin induced by sodium dodecylsulfate (SDS) processing or tape stripping on inside of upper arm without any skin troubles.
Further, the proportions of the involucrin-positive CE's in the SDS treated group and the tape stripping group in the experimental rough skin described above are shown in Table 1 in comparison with that of the involucrin-positive CE in the non-processed group (each 3 to 4 specimens).

[2] = test system: human epidermal keratinocytes; experiment: CE formation-promoting effect in cultured epidermal keratinocytes (involucrin immunostaining and Nile Red staining of CE); assay type: cell-based; conditions: 100 μM fatty acid in MEM containing 0.1% bovine serum albumin, confluent keratinocytes, cultured one week; growth medium control 15.83 ± 3.49
Excerpt: Further, culture was continued for one week. […] The insoluble substances thus obtained were CE.

SMILES | Proportion of involucrin-positive CE (%) average ± SD [1] | Proportion of involucrin-positive CE (%) average ± SD [2]
CCCCCCCCCCCCOS(=O)(=O)[O-].[Na+] [SDS, sodium dodecylsulfate] | 6.21 ± 2.96% | –
CCCCC/C=C\C/C=C\CCCCCCCC(=O)O [linoleic acid] | – | 0 (not detected) %
CCCCCCCC/C=C\CCCCCCCC(=O)O [oleic acid] | – | 0 (not detected) %
